# Data: ChEMBL document CHEMBL1201862, “PubChem BioAssay data set” (2004)
#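 Five compound concentrations were applied to cells in 96-well plates for 48 hours; endpoints were derived by simple linear interpolation of the resulting dose-response curve. GI50 is the concentration that inhibits growth by half.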 Calls of active or inactive are those of the source. Rule as the data show it: active = GI50 up to about 1.1 µM and inactive = higher.
# Assays:
# Assay in all cases: growth of human tumour cells (NCI), 48 h
# [1] = tested on: MDA-MB-435
# [2] = tested on: SNB-75
# [3] = tested on: OVCAR-5
# [4] = tested on: HOP-92
# [5] = tested on: A549
# [6] = tested on: SK-MEL-2
# [7] = tested on: HOP-62
# [8] = tested on: CAKI-1
# [9] = tested on: NCI-H460
# [10] = tested on: MOLT-4
# [11] = tested on: KM12
# [12] = tested on: OVCAR-4
# [13] = tested on: UACC-62
# [14] = tested on: Hs-578T
# [15] = tested on: LOX IMVI
# [16] = tested on: HT-29
# [17] = tested on: NCI/ADR-RES
# [18] = tested on: NCI-H226
Structure (SMILES),GI50 [1],GI50 [2],GI50 [3],GI50 [4],GI50 [5],GI50 [6],GI50 [7],GI50 [8],GI50 [9],GI50 [10],GI50 [11],GI50 [12],GI50 [13],GI50 [14],GI50 [15],GI50 [16],GI50 [17],GI50 [18]
COC(=O)/C(C#N)=C(\N)c1c(C)c2ccccc2oc1=N,> 100 µM (inactive),> 100 µM (inactive),> 100 µM (inactive),> 100 µM (inactive),> 100 µM (inactive),> 100 µM (inactive),> 100 µM (inactive),> 10 µM (inactive),> 100 µM (inactive),> 100 µM (inactive),> 100 µM (inactive),> 100 µM (inactive),> 100 µM (inactive),> 100 µM (inactive),> 100 µM (inactive),,,
O=C1NC2NC3NC(=O)NC3NC2N1 (stereo not drawn),> 100 µM (inactive),76.4 µM (inactive),> 100 µM (inactive),> 100 µM (inactive),> 100 µM (inactive),> 100 µM (inactive),> 100 µM (inactive),> 100 µM (inactive),,> 100 µM (inactive),> 100 µM (inactive),,> 100 µM (inactive),,> 100 µM (inactive),> 100 µM (inactive),> 100 µM (inactive),> 100 µM (inactive)
Cn1c2ccccc2c2c3c(c4c5ccccc5n(C)c4c21)C(=O)c1ccccc1C3=O,51.3 µM (inactive),35.3 µM (inactive),> 100 µM (inactive),53.3 µM (inactive),59.4 µM (inactive),40.3 µM (inactive),31.1 µM (inactive),33.9 µM (inactive),64.1 µM (inactive),> 100 µM (inactive),86.9 µM (inactive),58.3 µM (inactive),25.9 µM (inactive),,37.3 µM (inactive),> 100 µM (inactive),61.1 µM (inactive),> 100 µM (inactive)
CC1(CO)OC(n2cnc3cncnc32)CC1O (stereo not drawn),> 100 µM (inactive),,> 100 µM (inactive),> 100 µM (inactive),> 100 µM (inactive),> 100 µM (inactive),> 100 µM (inactive),> 100 µM (inactive),> 100 µM (inactive),> 100 µM (inactive),> 100 µM (inactive),> 100 µM (inactive),> 100 µM (inactive),,,> 100 µM (inactive),> 100 µM (inactive),> 100 µM (inactive)
CC(C)n1c(=O)n(-c2ccccc2)n(C(C)(C)C)c1=O,,> 100 µM (inactive),> 100 µM (inactive),> 100 µM (inactive),> 100 µM (inactive),> 100 µM (inactive),> 100 µM (inactive),> 100 µM (inactive),> 100 µM (inactive),> 100 µM (inactive),> 100 µM (inactive),> 100 µM (inactive),> 100 µM (inactive),> 100 µM (inactive),> 100 µM (inactive),> 100 µM (inactive),> 100 µM (inactive),> 100 µM (inactive)
COc1cc2c(cc1OC)C1=C(C=O)c3ccc(OC)c(OC)c3C(O)N1CC2 (stereo not drawn),32.2 µM (inactive),4.75 µM (inactive),31.7 µM (inactive),,22.7 µM (inactive),13.8 µM (inactive),39.7 µM (inactive),31.2 µM (inactive),30.8 µM (inactive),12.5 µM (inactive),28.9 µM (inactive),40.3 µM (inactive),13.8 µM (inactive),23.9 µM (inactive),,21.4 µM (inactive),26.4 µM (inactive),66.5 µM (inactive)
Cc1ccc(/C=N/n2c(Cc3ccccc3)n[nH]c2=O)cc1,,40.2 µM (inactive),> 100 µM (inactive),37 µM (inactive),> 100 µM (inactive),,37.2 µM (inactive),28.6 µM (inactive),> 100 µM (inactive),> 100 µM (inactive),> 100 µM (inactive),> 100 µM (inactive),,65.2 µM (inactive),> 100 µM (inactive),> 100 µM (inactive),> 100 µM (inactive),> 100 µM (inactive)
CN(C)CC1CN=C(N)O1 (stereo not drawn),> 100 µM (inactive),,> 100 µM (inactive),> 100 µM (inactive),> 100 µM (inactive),> 100 µM (inactive),> 100 µM (inactive),> 100 µM (inactive),> 100 µM (inactive),> 100 µM (inactive),> 100 µM (inactive),> 100 µM (inactive),> 100 µM (inactive),,> 100 µM (inactive),,> 100 µM (inactive),> 100 µM (inactive)
CC(C)(C)[Si](C)(C)OC1(CCc2ccccc2OS(=O)(=O)C(F)(F)F)CCCC=C1COCc1ccccc1 (stereo not drawn),> 100 µM (inactive),8.61 µM (inactive),,,0.325 µM (active),4.59 µM (inactive),> 100 µM (inactive),> 100 µM (inactive),,5.14 µM (inactive),14 µM (inactive),6.05 µM (inactive),29.5 µM (inactive),,4.31 µM (inactive),,> 100 µM (inactive),46.1 µM (inactive)
